Values of other authors, collected in patent US20110251195A1, “ADRB2 GENE PO[…] INTRAOCULAR PRESSURE RESPONSE TO TOPICAL BETA-BLOCKERS” (Marshfield Clinic, priority 2008, published 2011).

Test system: ADRB2 gene product (Gln27 / Glu27)
Settings: Glu27 versus Gln27 ADRB2 variant

SMILES: CC(C)NCC(O)c1ccc(O)c(O)c1 (stereo not shown) [isoprenaline]
- fold greater isoprenaline concentration necessary to down-regulate Glu27 to the same extent as Gln27: 60 fold
